Consider 12 compounds from patent US8163724B2, “Glucocorticosteroids, processes for their preparation, pharmaceutical compositions containing them and their use in therapy” (AstraZeneca AB, priority 2007, dated 2012).

The structures appear in SMILES notation. pIC50: −log10 of the molar value.

One may read the pIC50 as the IC50 on a negative log10 scale, so that one unit is a factor of ten.

The target of this assay is T1, recombinant human GR (Homo sapiens, UniProt P04150).
T1 construct: purchased Panvera/Invitrogen P2812 (kit P2893)
T1 sequence (P04150 1-777): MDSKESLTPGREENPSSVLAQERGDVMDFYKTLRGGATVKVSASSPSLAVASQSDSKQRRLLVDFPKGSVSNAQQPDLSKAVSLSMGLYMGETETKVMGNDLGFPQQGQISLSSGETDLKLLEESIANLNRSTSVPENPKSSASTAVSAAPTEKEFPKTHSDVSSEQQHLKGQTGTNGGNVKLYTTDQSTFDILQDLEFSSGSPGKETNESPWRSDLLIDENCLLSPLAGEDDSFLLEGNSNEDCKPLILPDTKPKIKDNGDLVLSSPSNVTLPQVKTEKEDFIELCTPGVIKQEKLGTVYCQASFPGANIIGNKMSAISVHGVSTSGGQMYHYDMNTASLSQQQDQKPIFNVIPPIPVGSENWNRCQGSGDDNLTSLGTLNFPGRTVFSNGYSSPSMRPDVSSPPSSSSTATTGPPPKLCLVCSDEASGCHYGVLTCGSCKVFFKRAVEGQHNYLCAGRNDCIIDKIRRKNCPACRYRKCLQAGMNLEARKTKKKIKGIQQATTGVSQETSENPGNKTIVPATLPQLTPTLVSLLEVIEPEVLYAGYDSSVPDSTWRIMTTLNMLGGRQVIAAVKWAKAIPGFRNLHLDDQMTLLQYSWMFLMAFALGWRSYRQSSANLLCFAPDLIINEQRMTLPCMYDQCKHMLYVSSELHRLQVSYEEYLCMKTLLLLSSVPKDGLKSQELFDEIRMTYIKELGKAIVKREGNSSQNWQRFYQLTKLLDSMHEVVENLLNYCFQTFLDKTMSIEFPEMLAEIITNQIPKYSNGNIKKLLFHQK
In words: Human Glucocorticoid Receptor (GR) Assay (fluorescence polarization, Panvera/Invitrogen kit). As to conditions: fluorescence polarization; GS Red tracer; 2 hours at room temperature; 100% control 10 μM Dexamethasone; read-out: Inhibition of GR binding, IC50. The class given is binding. In outline:
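Fluorescence polarization competition with recombinant GR and GS Red fluorescent ligand plus stabilizing peptide and DTT in potassium phosphate/sodium molybdate/EDTA buffer with DMSO. Incubated 2 hours at room temperature in the dark; 0% control DMSO, 100% control 10 μM dexamethasone.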
On the technique in general: In fluorescence polarisation assays a small probe gives low polarisation when free and higher when bound to something large.
For the compound `CCC(=O)O[C@]1(C(=O)SC)CC[C@H]2[C@@H]3CCC4=Cc5c(cnn5-c5ccc(F)c(C(=O)SC)c5)C[C@]4(C)[C@H]3[C@@H](O)C[C@@]21C` [Example 175, (1R,3aS,3bS,10aR,10bS,11S,12aS)-7-{4-Fluoro-3-[(methylsulfanyl)carbonyl]phenyl}-11-hydroxy-10a,12a-dimethyl-1-[(methylsulfanyl)carbonyl]-1,2,3,3a,3b,4,5,7,10,10a,10b,11,12,12a-tetradecahydrocyclopenta[5,6]naphtho[1,2-f]indazol-1-yl propanoate], the pIC50 is 7.74.

In the case of `Cn1cccc1C(=O)O[C@]1(C(=O)SCC#N)CC[C@H]2[C@@H]3CCC4=Cc5c(cnn5-c5ccc(F)cc5)C[C@]4(C)[C@H]3[C@@H](O)C[C@@]21C` [Example 176, (1R,3aS,3bS,10aR,10bS,11S,12aS)-1-{[(Cyanomethyl)thio]carbonyl}-7-(4-fluorophenyl)-11-hydroxy-10a,12a-dimethyl-1,2,3,3a,3b,4,5,7,10,10a,10b,11,12,12a-tetradecahydrocyclopenta[5,6]naphtho[1,2-f]indazol-1-yl 1-methyl-1H-pyrrole-2-carboxylate], the negative logarithm of the IC50 (pIC50) was 7.96. As for `Cn1cccc1C(=O)O[C@]1(C(=O)SCF)CC[C@H]2[C@@H]3CCC4=Cc5c(cnn5-c5ccc(F)cc5)C[C@]4(C)[C@H]3[C@@H](O)C[C@@]21C` [Example 177, (1R,3aS,3bS,10aR,10bS,11S,12aS)-1-{[(Fluoromethyl)thio]carbonyl}-7-(4-fluorophenyl)-11-hydroxy-10a,12a-dimethyl-1,2,3,3a,3b,4,5,7,10,10a,10b,11,12,12a-tetradecahydrocyclopenta[5,6]naphtho[1,2-f]indazol-1-yl 1-methyl-1H-pyrrole-2-carboxylate], the pIC50 was 8.12. As for `Cn1cccc1C(=O)O[C@]1(C(=O)SCCO)CC[C@H]2[C@@H]3CCC4=Cc5c(cnn5-c5ccc(F)cc5)C[C@]4(C)[C@H]3[C@@H](O)C[C@@]21C` [Example 178, (1R,3aS,3bS,10aR,10bS,11S,12aS)-7-(4-Fluorophenyl)-11-hydroxy-1-{[(2-hydroxyethyl)thio]carbonyl}-10a,12a-dimethyl-1,2,3,3a,3b,4,5,7,10a,10b,11,12,12a-tetradecahydrocyclopenta[5,6]naphtho[1,2]-indazol-1-yl 1-methyl-1H-pyrrole-2-carboxylate], the negative logarithm of the IC50 (pIC50) is 8.12.

With `C[C@]12Cc3cnn(-c4ccnnc4)c3C=C1CC[C@@H]1[C@@H]2[C@@H](O)C[C@@]2(C)[C@H]1CC[C@]2(OC(=O)C1CC1)C(=O)OCC#N` [Example 184, Cyanomethyl(1R,3aS,3bS,10aR,10bS,11S,12aS)-1-[(cyclopropylcarbonyl)oxy]-11-hydroxy-10a,12a-dimethyl-7-pyridazin-4-yl-1,2,3,3a,3b,4,5,7,10,10a,10b,11,12,12a-tetradecahydrocyclopenta[5,6]naphtho[1,2-f]indazole-1-carboxylate], the pIC50 was 8.77. Regarding `C[C@]12Cc3cnn(-c4ccc(F)nc4)c3C=C1CC[C@@H]1[C@@H]2[C@@H](O)C[C@@]2(C)[C@H]1CC[C@]2(OC(=O)[C@H]1CCCO1)C(=O)SCC#N` [Example 185, (1R,3aS,3bS,10aR,10bS,11S,12aS)-1-{[(Cyanomethyl)sulfanyl]carbonyl}-7-(6-fluoropyridin-3-yl)-11-hydroxy-10a,12a-dimethyl-1,2,3,3a,3b,4,5,7,10,10a,10b,11,12,12a-tetradecahydrocyclopenta[5,6]naphtho[1,2-f]indazol-1-yl (2R)-tetrahydrofuran-2-carboxylate], the negative-log IC50 (pIC50) is 8.57. For `C[C@]12Cc3cnn(-c4ccc(F)nc4)c3C=C1CC[C@@H]1[C@@H]2[C@@H](O)C[C@@]2(C)[C@H]1CC[C@]2(OC(=O)[C@H]1CCCO1)C(=O)SCCO` [Example 186, (1R,3aS,3bS,10aR,10bS,11S,12aS)-7-(6-Fluoropyridin-3-yl)-11-hydroxy-1-{[(2-hydroxyethyl)sulfanyl]carbonyl}-10a,12a-dimethyl-1,2,3,3a,3b,4,5,7,10,10a,10b,11,12,12a-tetradecahydrocyclopenta[5,6]naphtho[1,2-f]indazol-1-yl (2R)-tetrahydrofuran-2-carboxylate] the value was 8.64.

On to `C[C@]12Cc3cnn(-c4ccc(F)nc4)c3C=C1CC[C@@H]1[C@@H]2[C@@H](O)C[C@@]2(C)[C@H]1CC[C@]2(OC(=O)[C@H]1CCCO1)C(=O)SCF` [Example 187, (1R,3aS,3bS,10aR,10bS,11S,12aS)-1-{[(Fluoromethyl)sulfanyl]carbonyl}-7-(6-fluoropyridin-3-yl)-11-hydroxy-10a,12a-dimethyl-1,2,3,3a,3b,4,5,10,10a,10b,11,12,12a-tetradecahydrocyclopenta[5,6]naphtho[1,2-f]indazol-1-yl (2R)-tetrahydrofuran-2-carboxylate], for which the pIC50 is 8.64. For `CSC(=O)[C@@]1(OC(=O)[C@H]2CCCO2)CC[C@H]2[C@@H]3CCC4=Cc5c(cnn5-c5ccc(F)nc5)C[C@]4(C)[C@H]3[C@@H](O)C[C@@]21C` [Example 188, (1R,3aS,3bS,10aR,10bS,11S,12aS)-7-(6-Fluoropyridin-3-yl)-11-hydroxy-10a,12a-dimethyl-1-[(methylsulfanyl)carbonyl]-1,2,3,3a,3b,4,5,7,10,10a,10b,11,12,12a-tetradecahydrocyclopenta[5,6]naphtho[1,2]-indazol-1-yl (2R)-tetrahydrofuran-2-carboxylate] the value was 8.92; for `C[C@]12Cc3cnn(-c4cnccn4)c3C=C1CC[C@@H]1[C@@H]2[C@@H](O)C[C@@]2(C)[C@H]1CC[C@]2(OC(=O)C1CC1)C(=O)SCC#N` [Example 189, (1R,3aS,3bS,10aR,10bS,11S,12aS)-1-{[(Cyanomethyl)sulfanyl]carbonyl}-11-hydroxy-10a,12a-dimethyl-7-pyrazin-2-yl-1,2,3,3a,3b,4,5,7,10,10a,10b,11,12,12a-tetradecahydrocyclopenta[5,6]naphtho[1,2-f]indazol-1-yl cyclopropanecarboxylate], 8.30. For `C[C@]12Cc3cnn(-c4cnccn4)c3C=C1CC[C@@H]1[C@@H]2[C@@H](O)C[C@@]2(C)[C@H]1CC[C@]2(OC(=O)C1CC1)C(=O)SCCO` [Example 190, (1R,3aS,3bS,10aR,10bS,11S,12aS)-11-Hydroxy-{[(2-hydroxyethyl)sulfanyl]carbonyl}-10a,12a-dimethyl-7-pyrazin-2-yl-1,2,3,3a,3b,4,5,7,10,10a,10b,11,12,12a-tetradecahydrocyclopenta[5,6]naphtho[1,2-f]indazol-1-yl cyclopropane carboxylate] the value was 8.43; for `C[C@]12Cc3cnn(-c4ccc(F)cc4)c3C=C1CC[C@H]1[C@@H]3CC[C@](OC(=O)c4ccco4)(C(=O)SCC#N)[C@@]3(C)C[C@H](O)[C@@]12F` [Example 193, (1R,3aS,3bS,10aS,10bR,11S,12aS)-1-{[(Cyanomethyl)sulfanyl]carbonyl}-10b-fluoro-7-(4-fluorophenyl)-11-hydroxy-10a,12a-dimethyl-1,2,3,3a,3b,4,5,7,10,10a,11,12,12a-tetradecahydrocyclopenta[5,6]naphtho[1,2-f]indazol-1-yl furan-2-carboxylate], 8.48.
